Reference: patent publication US10092588B2, “Foamable compositions, breakable foams and their uses” (Foamix Pharmaceuticals Ltd., priority 2009, dated 2018)

Experiment: Solubility of mometasone furoate in foam composition, visual inspection
Assay type: physicochemical
Conditions: in the hydro-alcoholic foam formulation

Q: With C[C@@H]1C[C@H]2[C@@H]3CCC4=CC(=O)C=C[C@]4(C)[C@@]3(Cl)[C@@H](O)C[C@]2(C)[C@@]1(OC(=O)c1ccco1)C(=O)CCl [Mometasone furoate] as the compound, how does the “Solubility of Mometasone Furoate” value read?
A: The value was “soluble”.
